Assay results from the supplement of paper PMC11061612.

Columns and labels:
[1] = test system: HO-1-u-1 (Oral Cavity Carcinoma); experiment: Bliss excess, mean over the matrix (fraction); higher = more synergy
Summary of the method: (§1)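 After 24 hours at 37°C and 5% CO2 in 1536-well plates, cells in DMEM/F12 or RPMI plus 10% FBS received two-drug dose matrices for 72 hours. Viability came from CellTiter-Glo 2.0 luminescence and was scaled as inhibition, anchored at 0 by vehicle wells and at 1 by blank wells. Combination Emax is taken as the second-highest inhibition in the matrix, and Bliss excess as the observed combination effect less EA + EB − EA·EB, with EA and EB the single-agent effects.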

[2] = test system: LU-139 (Small Cell Lung Carcinoma); experiment: as above
Summary of the method: as §1

[3] = test system: OC-314 (Ovarian Carcinoma); experiment: as above
Summary of the method: as §1

[4] = test system: OVCAR-8 (Ovarian Carcinoma); experiment: as above
Summary of the method: as §1

[5] = test system: 8305C (Thyroid Gland Carcinoma); experiment: combination Emax (second highest fraction inhibited in the dose matrix, 72 h); higher = more inhibition; extreme values may be limits of the assay
Summary of the method: as §1

[6] = test system: CAL-51 (Breast Carcinoma); experiment: as above
Summary of the method: as §1

COLO-829 (Melanoma) = experiment: as above
Summary of the method: as §1

[7] = test system: HARA (Squamous Cell Lung Carcinoma); experiment: as above
Summary of the method: as §1

HMV-II (Melanoma) = experiment: as above
Summary of the method: as §1

[8] = test system: LoVo (Colorectal Carcinoma); experiment: as above
Summary of the method: as §1

[9] = test system: MHH-PREB-1 (B-Cell Non-Hodgkin's Lymphoma); experiment: as above
Summary of the method: as §1

Mewo (Melanoma) = experiment: as above
Summary of the method: as §1

[10] = test system: NCI-H69 (Small Cell Lung Carcinoma); experiment: as above
Summary of the method: as §1

[11] = test system: NCI-H747 (Colorectal Carcinoma); experiment: as above
Summary of the method: as §1

[12] = test system: OC-314 (Ovarian Carcinoma); experiment: as above
Summary of the method: as §1

[13] = test system: OVCAR-8 (Ovarian Carcinoma); experiment: as above
Summary of the method: as §1

[14] = test system: PCI-30 (Head and Neck Carcinoma); experiment: as above
Summary of the method: as §1

[15] = test system: RKO (Colorectal Carcinoma); experiment: as above
Summary of the method: as §1

[16] = test system: SW1116 (Colorectal Carcinoma); experiment: as above
Summary of the method: as §1

[17] = test system: TE-4 (Esophageal Squamous Cell Carcinoma); experiment: as above
Summary of the method: as §1
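Throughout, for Bliss excess, mean over the matrix: after 72 h of two-drug dosing.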

SMILES | Bliss excess [1] | Bliss excess [2] | Bliss excess [3] | Bliss excess [4] | combination Emax [5] | combination Emax [6] | combination Emax (COLO-829 (Melanoma)) | combination Emax [7] | combination Emax (HMV-II (Melanoma)) | combination Emax [8] | combination Emax [9] | combination Emax (Mewo (Melanoma)) | combination Emax [10] | combination Emax [11] | combination Emax [12] | combination Emax [13] | combination Emax [14] | combination Emax [15] | combination Emax [16] | combination Emax [17]
COc1cc2ncnc(Nc3ccc(F)c(Cl)c3)c2cc1OCCCN1CCOCC1 [Gefitinib] + CC(C)n1c(=O)n(C)c2cnc3cc(F)c(-c4ccc(OCCCN5CCCCC5)nc4)cc3c21 [AZD1390] (first compound max 10 µM, 7x7, partner max 0.3 µM) | -0.0212 | -0.0251 | -0.0314 | -0.0633 | 0.298 | 0.068 | 0.143 | 0.298 | 0.411 | 0.421 | 0.123 | 0.0376 | 0.286 | 0.369 | 0.255 | 0.223 | 0.131 | 0.0688 | 0.241 | 0.981
NC1(C(=O)N[C@@H](CCO)c2ccc(Cl)cc2)CCN(c2ncnc3[nH]ccc23)CC1 [Capivasertib] + COc1nnc2ccc(N3CCC(c4ccc(OCCN5CCN(C)C(=O)[C@H]5C)cc4)CC3)nn12 [AZD5153] (first compound max 10 µM, 7x7, partner max 1 µM) | 0.0041 | -0.0574 | -0.0135 | 0.0505 | 0.495 | 0.651 | 0.272 | 0.77 | 0.588 | 0.642 | 0.384 | 0.433 | 0.829 | 0.855 | 0.818 | 0.732 | 0.366 | 0.842 | 0.245 | 0.851
COc1cc2c(cc1OCCCCCOc1cc3c(cc1OC)C(=O)N1C=C(C)C[C@H]1C=N3)N=C[C@@H]1CC(C)=CN1C2=O [SG3199] + O=C(c1cc(Cc2n[nH]c(=O)c3ccccc23)ccc1F)N1CCN(C(=O)C2CC2)CC1 [Olaparib] (first compound max 0.001 µM, 7x7, partner max 10 µM) | -0.0205 | -0.0196 | -0.036 | -0.0295 | 0.141 | 0.202 | 0.129 | 0.174 | 0.118 | 0.14 | 0.13 | 0.106 | 0.242 | 0.0668 | 0.205 | 0.268 | 0.105 | 0.114 | 0.0344 | 0.233
COc1cccc(OCCCN)c1-c1cc(Nc2cnc(C#N)cn2)n[nH]1 [Prexasertib] + C[C@@H]1COCCN1C2=NC(=NC(=C2)C3(CC3)[S@](=N)(=O)C)C4=C5C=CNC5=NC=C4 [AZD6738] (first compound max 1 µM, 7x7, partner max 10 µM) | -0.0013 | 0.0339 | 0.0344 | -0.0151 | 0.718 | 0.929 | 0.335 | 0.943 | 0.565 | 0.869 | 0.949 | 0.479 | 0.616 | 0.443 | 0.934 | 0.991 | 0.773 | 0.946 | 0.615 | 0.652
Cc1c2c(nn1C)CSCc1cc(n(C)n1)CSc1cc(c3ccccc3c1)OCCCc1c(C(=O)O)n(C)c3c-2c(Cl)ccc13 [AZD5991] + Cc1cc2ncnn2cc1Nc1ncc2c(n1)n(C1CCOCC1)c(=O)n2C [AZD7648] (first compound max 1 µM, 7x7, partner max 10 µM) | -0.019 | -0.013 | 0.0063 | -0.0129 | 0.432 | 0.365 | 0.144 | 0.394 | 0.273 | 0.573 | 0.175 | 0.283 | 0.283 | 0.392 | 0.297 | 0.225 | 0.323 | 0.364 | 0.168 | 0.517
Cn1cnc2c(F)c(Nc3ccc(Br)cc3Cl)c(C(=O)NOCCO)cc21 [Selumetinib] + CC(C)n1c(=O)n(C)c2cnc3cc(F)c(-c4ccc(OCCCN5CCCCC5)nc4)cc3c21 [AZD1390] (first compound max 10 µM, 7x7, partner max 0.3 µM) | -0.0387 | -0.0259 | -0.0357 | -0.0254 | 0.379 | 0.157 | 0.481 | 0.184 | 0.719 | 0.425 | 0.108 | 0.403 | 0.122 | 0.702 | 0.211 | 0.132 | 0.203 | 0.606 | 0.502 | 0.226
CC1(C)CCC(CN2CCN(c3ccc(C(=O)NS(=O)(=O)c4ccc(NCC5CCOCC5)c([N+](=O)[O-])c4)c(Oc4cnc5[nH]ccc5c4)c3)CC2)=C(c2ccc(Cl)cc2)C1 [Venetoclax] + CN(C)CCCOc1ccc(-c2ccc3ncc4c(c3c2)n(C2CCOCC2)c(=O)n4C)cn1 [AZD0156] (first compound max 1 µM, 7x7, partner max 1 µM) | -0.003 | 0.0014 | 0.008 | -0.0089 | 0.369 | 0.242 | 0.21 | 0.651 | 0.289 | 0.283 | 0.14 | 0.547 | 0.548 | 0.305 | 0.316 | 0.219 | 0.149 | 0.381 | 0.103 | 0.179
